# Measurements taken from patent US20100183600A1, “RAF Inhibitors and Their Uses” (ARQULE, INC., priority 2008, published 2010).
# What was measured:
# mutant B-RAF = target: T1, mutant B-RAF (Homo sapiens, UniProt P15056, V600E); assay: Measurement of RAF activity (MEK-1 phosphorylation); type: biochemical; settings: 50 μM ATP, MEK-1 substrate; read-out: Mut-B-Raf IC50
# T1 construct: purchased Upstate (Charlottesville, Va.)
# Protocol: Materials: The RAF kinases and the anti-phospho MEK1/2 antibody were from Upstate (Charlottesville, Va.). The RAF substrate used was full length N-terminal GST-MEK-1, which was expressed in E. coli and purified in-house by HPLC. All proteins were aliquoted and stored at −80° C. Superblock™ in phosphate buffered saline (PBS) blocking reagent was form Pierce (cat. #37515). ATP was from Roche (cat. # 19035722). Alkaline Phosphatase-tagged goat anti-rabbit antibody was from Pierce (cat. # 31340).
# Methods: All RAF biochemical assays were performed using an assay buffer containing 20 mM MOPS, 5 mM EGTA, 37.5 mM MgCl2, 1 mM DTT and 50 μM ATP. There was 6.25 ng/well mutant B-RAF and 7.5 ng/well MEK-1 in the final assay conditions. Compounds were serially diluted in assay buffer containing 1% DMSO and 20 μl of test compound at a concentration 3-fold more than the final concentration, and were added to a polypropylene V-well reaction plate. Vehicle control wells received buffer only with DMSO at equivalent concentrations to the test wells. […] These reaction plates were incubated at room temperature for 30 minutes. Capture of MEK-1 was initiated by transferring 50 μl of the reaction mixture to a Nunc Maxisorp™ microplate that is designed for non-specific protein capture. After 30 minute capture of MEK-1 at room temperature, this plate was washed with TBST (6×200 μL/well) to fully terminate the reaction. The plate was then blocked for 1 hour by the addition of 100 μl/well of Superblock™ in phosphate buffered saline (PBS) blocking reagent. Plate was again washed with TBST (6 times with 200 μl/well), followed by the addition of 70 μl/well of Upstate anti-phospho MEK ½ diluted 1:1000 in Pierce Superblock (PBS). After a 60 minute incubation, this plate was washed with TBST (6 times with 200 μl/well), and 70 μl of the secondary antibody (Pierce Alkaline Phosphatase tagged goat anti-rabbit) prepared at 1:4000 in Superblock, were added. After a 45 minute incubation at room temperature, the wells of the microplate were washed with TBST (6 times with 200 μl/well), and thereafter 100 μl/well of Attophos™ fluorescent alkaline phosphatase substrate was added according to the manufacturer's instructions (JBL Scientific). Fluorescence was read on a Perkin Elmer Envision multilabel reader, using the following filters: Excitation Filter: CFP430 nM, Emission Filter: Emission Filter 579 nM.
# DU145 = assay: Cell growth inhibition assay (MTS); type: cell-based; settings: Homo sapiens, DU-145; DU145, prostate
# Protocol: (§1) Compounds of the present invention have been tested for activity against a variety of cancer cell lines. The ability of compounds to inhibit cell growth in this assay is correlated with the reduction of dehydrogenase enzyme activity found in metabolically active cells.
# (§2) Materials: A large variety of cancer cells from ATCC were maintained at 37° C., 5% CO2 in DMEM media supplemented with 10% fetal bovine serum, penicillin/streptomycin and fungizone (Invitrogen). NCM460 (Incell), a normal colon epithelial cell line, and human mammary epithelial cells (Cambrex) were maintained at 37° C., 5% CO2 in DMEM and HEBM media (Cambrex), respectively.
# (§3) Methods: Test compounds were dissolved and diluted to 300× in DMSO then diluted 1:40 in DMEM. Cells were seeded into 96-well tissue culture plates at 1-5×10^3 per well and cultured at 37° C. for 24 h. Cells were incubated with test compounds for 72 hours followed by incubation with tetrazolium compound (3-(4,5-dimethylthiazol-2-yl)-5-(3-carboxymethoxyphenyl)-2-(4-sulfophenyl)-2H-tetrazolium, inner salt; MTS) and the electron coupling reagent, phenazine methosulfate (PMS) for 4 hr. […] The measurement of the absorbance of the formazan was assessed using an ENVISION™ (Perkin Elmer) microplate reader at 492 nm. The calculated IC50 value is the concentration of the test compound that causes a 50% decrease in the absorbance.
# HEC1A = assay: Cell growth inhibition assay (MTS); type: cell-based; settings: Homo sapiens, HEC-1-A, endometrial
# Protocol: as §1, §2, §3
# HPAF-II = assay: Cell growth inhibition assay (MTS); type: cell-based; settings: Homo sapiens, pancreas
# Protocol: as §1, §2, §3
# KG-1a = assay: Cell growth inhibition assay (MTS); type: cell-based; settings: Homo sapiens, AML
# Protocol: as §1, §2, §3
# KG-1 = assay: Cell growth inhibition assay (MTS); type: cell-based; settings: Homo sapiens; KG-1, AML
# Protocol: as §1, §2, §3
# Kato111 = assay: Cell growth inhibition assay (MTS); type: cell-based; settings: Homo sapiens; Kato111, gastric carcinoma
# Protocol: as §1, §2, §3
# LS174T = assay: Cell growth inhibition assay (MTS); type: cell-based; settings: Homo sapiens, colorectal carcinoma
# Protocol: as §1, §2, §3
# LS411N = assay: Cell growth inhibition assay (MTS); type: cell-based; settings: Homo sapiens, LS-411N, colorectal carcinoma
# Protocol: as §1, §2, §3
# NCI-H460 = assay: Cell growth inhibition assay (MTS); type: cell-based; settings: Homo sapiens; NCI-H460, large cell lung carcinoma
# Protocol: as §1, §2, §3
# NCI-H520 = assay: Cell growth inhibition assay (MTS); type: cell-based; settings: Homo sapiens; NCI-H520, squamous cell lung carcinoma
# Protocol: as §1, §2, §3
# NCI-H526 = assay: Cell growth inhibition assay (MTS); type: cell-based; settings: Homo sapiens; NCI-H526, lung carcinoma, variant small cell lung cancer
# Protocol: as §1, §2, §3
# NTERA-2 c1. D1 = assay: Cell growth inhibition assay (MTS); type: cell-based; settings: Homo sapiens, NTERA2; NTERA-2 c1. D1, testis pluripotent embryonal carcinoma
# Protocol: as §1, §2, §3
# RT112 = assay: Cell growth inhibition assay (MTS); type: cell-based; settings: RT-112; RT112, human urinary bladder cell carcinoma
# Protocol: as §1, §2, §3
# SK-HEP-1 = assay: Cell growth inhibition assay (MTS); type: cell-based; settings: Homo sapiens, SK-HEP1; SK-HEP-1, liver adenocarcinoma
# Protocol: as §1, §2, §3
# SNU-16 = assay: Cell growth inhibition assay (MTS); type: cell-based; settings: Homo sapiens; SNU-16, gastric Carcinoma
# Protocol: as §1, §2, §3
# SW480 = assay: Cell growth inhibition assay (MTS); type: cell-based; settings: Homo sapiens; SW480, colon
# Protocol: as §1, §2, §3
# SW780 = assay: Cell growth inhibition assay (MTS); type: cell-based; settings: Homo sapiens; SW780, bladder
# Protocol: as §1, §2, §3
# THP-1 = assay: Cell growth inhibition assay (MTS); type: cell-based; settings: Homo sapiens; THP-1, acute monocytic leukemia
# Protocol: as §1, §2, §3
# WIDR = assay: Cell growth inhibition assay (MTS); type: cell-based; settings: Homo sapiens, colorectal adenocarcinoma
# Protocol: as §1, §2, §3
# T1 sequence (P15056 whole entry V600E): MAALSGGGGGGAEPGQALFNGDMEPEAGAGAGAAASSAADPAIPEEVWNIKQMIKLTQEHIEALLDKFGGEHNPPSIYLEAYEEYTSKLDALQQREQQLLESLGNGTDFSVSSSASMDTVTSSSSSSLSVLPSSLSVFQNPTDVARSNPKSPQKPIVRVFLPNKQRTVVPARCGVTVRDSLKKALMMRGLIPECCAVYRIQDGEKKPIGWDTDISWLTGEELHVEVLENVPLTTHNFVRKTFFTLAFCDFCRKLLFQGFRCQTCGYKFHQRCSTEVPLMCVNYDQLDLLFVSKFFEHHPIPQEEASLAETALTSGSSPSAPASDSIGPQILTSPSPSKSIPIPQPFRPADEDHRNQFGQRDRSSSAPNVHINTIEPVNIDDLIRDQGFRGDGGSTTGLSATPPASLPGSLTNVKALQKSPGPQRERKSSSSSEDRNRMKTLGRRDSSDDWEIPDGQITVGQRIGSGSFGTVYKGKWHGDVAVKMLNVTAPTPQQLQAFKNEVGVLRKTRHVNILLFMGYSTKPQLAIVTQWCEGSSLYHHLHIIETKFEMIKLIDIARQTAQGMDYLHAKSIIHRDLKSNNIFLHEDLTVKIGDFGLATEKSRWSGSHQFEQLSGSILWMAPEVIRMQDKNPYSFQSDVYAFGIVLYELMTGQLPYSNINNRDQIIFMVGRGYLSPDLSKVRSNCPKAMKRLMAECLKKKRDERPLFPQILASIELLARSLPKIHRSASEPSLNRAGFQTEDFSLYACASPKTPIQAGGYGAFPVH
IC50 (mutant B-RAF),GI50 (DU145),GI50 (NCI-H460),GI50 (NCI-H520),GI50 (NCI-H526),GI50 (SK-HEP-1),GI50 (SNU-16),GI50 (SW480),GI50 (SW780),GI50 (THP-1),Compound,GI50 (HEC1A),GI50 (HPAF-II),GI50 (KG-1a),GI50 (KG-1),GI50 (Kato111),GI50 (LS174T),GI50 (LS411N),GI50 (NTERA-2 c1. D1),GI50 (RT112),GI50 (WIDR)
0.008 µM,–,–,–,–,–,–,–,–,–,"Cn1ccc(S(=O)(=O)N2CCC[C@@H](Nc3nccc(-c4c(-c5cccc(O)c5)nc5occn45)n3)C2)n1 [Compound 17, (R)-3-(5-(2-(1-(1-methyl-1H-pyrazol-3-ylsulfonyl)piperidin-3-ylamino)pyrimidin-4-yl)imidazo[2,1-b]oxazol-6-yl)phenol]",–,–,–,–,–,–,–,–,–,–
2.92 µM,9.62 µM,19.3 µM,20.2 µM,58.9 µM,7.22 µM,15.7 µM,8.27 µM,9.1 µM,10.3 µM,"Cn1ccc(S(=O)(=O)N2CCC[C@@H](Nc3nccc(-c4c(-c5cccc(OCOP(=O)(O)O)c5)nc5occn45)n3)C2)n1 [Compound 19, (R)-(3-(5-(2-(1-(1-methyl-1H-pyrazol-3-ylsulfonyl)piperidin-3-ylamino)pyrimidin-4-yl)imidazo[2,1-b]oxazol-6-yl)phenoxy)methyl dihydrogen phosphate]",2.72 µM,5.78 µM,11.5 µM,30.8 µM,6.11 µM,5.9 µM,0.31 µM,5.32 µM,1.92 µM,20.2 µM
